Assays:
[1] = target: CD73 bound to the surfaces of A375 cells (Homo sapiens (Human), UniProt P21589); experiment: Inhibitory activity to CD73 enzyme bound to the surfaces of human melanoma A375 cells; format: cell-based; details: AMP 200 μM, 16 h
Protocol: The compound was diluted with serum-free DMEM to form a stock solution (5×) of an appropriate concentration gradient, the compound solution was added to the cells in the above 96-well plate according to 20 μL/well, and the mixture was placed in an incubator and pre-incubated for 30 min.
(§1) A375-bound CD73 inhibition rates of the compound at different concentrations were calculated according to the following formula, the concentration of the compound was taken as the X-axis, the inhibition rate was taken as the Y-axis, and an IC50 value of the compound in inhibiting A375-bound CD73 was calculated by using Prism software.

[2] = Plasma protein binding by equilibrium dialysis, human plasma; format: in vitro ADME; details: 37° C.
Protocol: (§2) Plasma protein binding rates of the compounds were detected by equilibrium dialysis (HTDialysis, HTD 96b). The compound was diluted with DMSO to form a 0.5 mM stock solution, and the stock solution was diluted 25 times with a 0.05 M sodium phosphate buffer to form a 20 μM working solution. Plasma was placed in a new 96-well plate according to 380 μL/well, then the working solution was added to and uniformly mixed with the plasma according to 20 μL/well, the final concentration of the compound was 1 μM, and each well contained 0.2% DMSO.
(§3) 100 μL of 0.05 M sodium phosphate buffer was added to a receiving side of each dialysis chamber (HTD 96b), and 100 μL of plasma containing the compound was added to a supply side. The dialysis apparatus was closed with a plastic lid, and incubated with shaking at 37° C. for 5 h.
(§4) After the incubation was completed, 25 μL of sample was collected respectively from the supply side and the receiving side of the dialysis chamber, and placed in a new 96-well plate, an equal volume of blank plasma was added to and uniformly mixed with each sample on the supply side, an equal volume of 0.05 M sodium phosphate buffer was added to and uniformly mixed with each sample on the receiving side. 200 μL of acetonitrile solution containing the internal standard was added to each well, the 96-well plate was vortex-shaken at 600 rpm for 10 min, and centrifuged at 5,594 g for 15 min (Thermo Multifuge×3R), 50 μL of supernatant was transferred to a new 96-well plate, and the sample was mixed with 50 μL of ultrapure water and subjected to LC-MS/MS analysis.
(§5) A plasma protein binding rate and a fraction unbound in plasma were calculated according to the following formulas:
(§6) % binding rate=100×([supply side concentration]5h−[receiving side concentration]5h)/[supply side concentration]5h; and
(§7) % fraction unbound in plasma=100−% binding rate.

[3] = Plasma protein binding by equilibrium dialysis, mouse plasma; format: in vitro ADME; details: 37° C.
Protocol: as §2, §3, §4, §5, §6, §7

[4] = Plasma protein binding by equilibrium dialysis, canine plasma; format: in vitro ADME; details: dog, 37° C.
Protocol: as §2, §3, §4, §5, §6, §7

[5] = system: Human CD4+ T cells; experiment: Relieving AMP-induced proliferation inhibition of human CD4+ T cells (CCK8); format: cell-based; details: Homo sapiens, 120 h, AMP 0.3 mM, day 5
Protocol: On day 1 of the experiment, CD4^+ T cells (Allcells Shanghai, PB009-2F-C) were thawed, and inoculated into two replicate wells according to 3×10^4 cells/well and 50 μL/well. The compound was diluted with a complete medium to form a stock solution (4×) of an appropriate concentration gradient, the compound solution was added to the above cells according to 50 μL/well, and the mixture was pre-incubated at 37° C. for 30 min. […] Meanwhile, a positive reference group (Human CD4^+ T+IL-2+CD3/CD28 beads) and a negative reference group (Human CD4^+ T+IL-2+CD3/CD28 beads+AMP) were set. AMP (Sigma; A1752-5G) was diluted with a complete medium to form an AMP solution (4×), the AMP solution was added to the above cells according to 50 μL/well, the final concentration was 0.3 mM, and the mixture was incubated at 37° C. On day 3 of the experiment, the AMP solution was added to the above plate according to 20 μL/well, and the final concentration was 0.3 mM. On day 5, the proliferation of the cells was detected by using a CCK8 kit (DojinDO; CK04).
Inhibition rates of the compound at different concentrations in relieving AMP-induced proliferation inhibition of CD4^+ T cells were calculated according to the following formula, the concentration of the compound was taken as the X-axis, the inhibition rate was taken as the Y-axis, and an EC50 value of the compound in relieving the AMP-induced proliferation inhibition of CD4^+ T cells was calculated by using Prism software.

[6] = Pharmacokinetic test on mice; format: in vivo, male ICR mice; details: male, ICR, plasma, mouse; for AUC(0-t): read-out: AUC0-t; for Cmax: read-out: Cmax; for Tmax: read-out: Tmax; for Vd: read-out: Vz
Protocol: (§8) In a pharmacokinetic test on mice, male ICR mice of 20 g to 25 g were used and fasted overnight. 3 mice were selected for orally intragastric administration (10 mg/kg). Before administration, and 15 min, 30 min, 1 h, 2 h, 4 h, 8 h, and 24 h after administration, blood was sampled from each mouse. Another 3 mice were selected for intravenous injection administration (3 mg/kg), and before administration, and 15 min, 30 min, 1 h, 2 h, 4 h, 8 h, and 24 h after administration, blood was sampled from each mouse. The blood sample was centrifuged at 6,800 g and 2 to 8° C. for 6 min, and plasma was collected and stored at −80° C. The plasma of each time point was vortex-mixed for 1 min with an acetonitrile solution containing the internal standard with a volume 3-5 times that of the plasma of each time point, and centrifuged at 13,000 rpm and 4° C. for 10 min, a supernatant was collected and mixed with water with a volume 3 times that of the supernatant, and an appropriate amount of the mixed solution was used for LC-MS/MS analysis. The main pharmacokinetic parameters were analyzed by using a WinNonlin 7.0 non-compartmental model.

[7] = Pharmacokinetic test on dogs; format: in vivo, male Beagle dogs; details: male, Beagle, plasma, dog; for Vd: read-out: Vz
Protocol: as §8
In a pharmacokinetic test on dogs, male Beagle dogs of 8 to 10 kg were used and fasted overnight. 3 Beagle dogs were selected for orally intragastric administration (5 mg/kg). Another 3 Beagle dogs were selected for intravenous injection administration (1 mg/kg). Other operations were the same as the pharmacokinetic test on mice.

[8] = system: A375 melanoma; experiment: In vivo efficacy on A375 melanoma (PBMC + A375 cells in NCG mice); details: compound 40 mg/kg + anti PD-1 10 mg/kg; for Mean ± SEM (tumor size): in mm³ (unit assumed)
Protocol: A375 cells in logarithmic growth phase were collected, cultured in Mitomycin C for 2 h, and washed three times with PBS. After 5 days of co-culture of PBMC and A375 cells, PBMC and freshly digested A375 cells were collected, 5×10^5 PBMC and 4×10^6 A375 cells were inoculated subcutaneously on the right side of NCG mice according to 0.2 mL/mouse (containing 50% Matrigel). After inoculation, the mice were randomly divided into a model group and an administration group according to body weight of the mice, tumor size and animal weight were measured and recorded before and during administration, and tumor sizes of the model group and the administration group were compared after treatment to determine the efficacy.

[9] = target: Human-CD73 enzyme (Homo sapiens (Human), UniProt P21589); experiment: In vitro inhibitory activity to recombinant human CD73 enzyme (ATP-GLO); format: biochemical; details: Human-CD73 0.1 μg/mL, AMP 100 μM
Human-CD73 enzyme, sequence (P21589 27-574): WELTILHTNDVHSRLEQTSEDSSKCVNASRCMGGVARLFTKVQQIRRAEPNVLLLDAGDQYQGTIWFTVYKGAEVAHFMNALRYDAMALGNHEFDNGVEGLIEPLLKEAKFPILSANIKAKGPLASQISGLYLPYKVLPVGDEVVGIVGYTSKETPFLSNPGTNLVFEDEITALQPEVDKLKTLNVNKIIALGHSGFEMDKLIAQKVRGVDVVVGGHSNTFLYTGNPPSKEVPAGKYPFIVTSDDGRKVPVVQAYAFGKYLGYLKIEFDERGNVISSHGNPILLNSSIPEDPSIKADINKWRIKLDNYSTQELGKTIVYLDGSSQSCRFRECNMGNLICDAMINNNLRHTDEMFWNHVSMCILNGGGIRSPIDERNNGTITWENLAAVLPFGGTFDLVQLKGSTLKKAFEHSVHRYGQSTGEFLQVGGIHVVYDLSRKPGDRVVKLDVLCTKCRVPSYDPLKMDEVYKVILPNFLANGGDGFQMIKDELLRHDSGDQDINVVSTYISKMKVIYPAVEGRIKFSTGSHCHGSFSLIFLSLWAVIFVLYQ
Protocol: Human-CD73 (Novoprotein; C446) was diluted with Tris-MgCl2 buffer to form a stock solution (3×), which was placed in a 96-well plate according to 20 μL/well to obtain a final concentration of 0.1 μg/mL. The compound was diluted with Tris-MgCl2 buffer to form a stock solution (3×) of an appropriate concentration gradient, the compound solution was added to the above 96-well plate according to 20 μL/well and uniformly mixed with the Human-CD73 solution, and the mixture was incubated at the room temperature for 30 min. Meanwhile, a positive reference group (without the compound) and a negative reference group (without CD73) were set. AMP (Sigma; A1752-5G) was diluted with Tris-MgCl2 buffer to form a stock solution (3×), which was added to the above 96-well plate according to 20 μL/well to obtain a final concentration of 100 μM, and the mixture was uniformly mixed and incubated at 37° C. for 60 min; ATP (Sigma; A7699-1G) was diluted with Tris-MgCl2 buffer to form a stock solution (7×), which was added to the above 96-well plate according to 10 μL/well to obtain a final concentration of 100 μM, and the mixture was uniformly mixed, incubated for 5 min, and tested by using an ATP-GLO kit (Promega; G7573).
as §1, with “Human-CD73” for “A375-bound CD73”

[10] = po, orally intragastric 10 mg/kg
[11] = po, orally intragastric 5 mg/kg

CD73 bound to the surfaces of A375 cells, sequence (P21589 27-574): as above

| IC50 [1] | fraction unbound at 5 h, 1 μM [2] | fraction unbound at 5 h, 1 μM [3] | fraction unbound at 5 h, 1 μM [4] | half-life [6, 10] | AUC(0-t) [6, 10] | Cmax [6, 10] | Tmax [6, 10] | AUC(0-t) [7, 11] | Cmax [7, 11] | Tmax [7, 11] | half-life [7, 11] | AUC(0-t) ([7]; intravenous injection 1 mg/kg) | clearance ([7]; intravenous injection 1 mg/kg) | half-life ([7]; intravenous injection 1 mg/kg) | Vd ([7]; intravenous injection 1 mg/kg) | clearance ([6]; intravenous injection 3 mg/kg) | SMILES | EC50 [5] | % TGI [8] | Mean ± SEM (tumor size) [8] | other results |
| --- | --- | --- | --- | --- | --- | --- | --- | --- | --- | --- | --- | --- | --- | --- | --- | --- | --- | --- | --- | --- | --- |
| 0.0307 µM | 0.274 | 0.474 | 0.245 | 199 min | 5.72 µg·h/mL | 4.3 µg/mL | 25.2 min | 16.9 µg·h/mL | 5.48 µg/mL | 70.2 min | 160 min | 1.46 µg·h/mL | 0.73 L/h/kg | 56.4 min | 0.99 L/kg |  | O=c1[nH]cc(-c2cc([C@H]3C[C@@H]3CF)c(Cl)nn2)c(=O)[nH]1 [Compound 1, 5-(6-chloro-5-((1S,2S)-2-(fluoromethyl)cyclopropyl)pyridazin-3-yl)pyrimidine-2,4(1H,3H)-dione] | 0.0719 µM | 63.68% | 713.7 ± 89.22 |  |
| 0.0673 µM | 0.098 | 0.261 | 0.177 | 65.4 min | 5.38 µg·h/mL | 4.54 µg/mL | 25.2 min | 9 µg·h/mL | 3.62 µg/mL | 30 min | 198 min | 1.56 µg·h/mL | 0.65 L/h/kg | 82.2 min | 1.33 L/kg | 1.32 L/h/kg | O=c1[nH]cc(-c2cc([C@H]3C[C@@H]3C(F)F)c(Cl)nn2)c(=O)[nH]1 [Reference compound 2, 5-(6-chloro-5-((1S,2S)-2-(difluoromethyl)cyclopropyl)pyridazin-3-yl)pyrimidine-2,4(1H,3H)-dione, reference compound] | 0.0937 µM |  |  | IC50 [9]: 0.0168 µM; half-life ([6]; intravenous injection 3 mg/kg): 75 min; AUC(0-t) ([6]; intravenous injection 3 mg/kg): 2.36 µg·h/mL; Vd ([6]; intravenous injection 3 mg/kg): 2.4 L/kg |
|  | 0.103 | 0.122 | 0.126 | 71.4 min | 1.27 µg·h/mL | 1.27 µg/mL | 19.8 min | 1.54 µg·h/mL | 1.2 µg/mL | 25.2 min | 55.8 min | 0.512 µg·h/mL | 2.16 L/h/kg | 23.4 min | 1.14 L/kg | 4.2 L/h/kg | Cc1nnc(-c2c[nH]c(=O)[nH]c2=O)cc1[C@H]1C[C@@H]1C(C)C [Reference compound 3, 5-(5-((1S,2R)-2-isopropylcyclopropyl)-6-methylpyridazin-3-yl)pyrimidine-2,4(1H,3H)-dione, reference compound] | 0.341 µM | 41.52% | 1149 ± 167.8 | half-life ([6]; intravenous injection 3 mg/kg): 16.8 min; AUC(0-t) ([6]; intravenous injection 3 mg/kg): 0.73 µg·h/mL; Vd ([6]; intravenous injection 3 mg/kg): 1.67 L/kg |

Reference: patent US20230399314A1, “CD73 INHIBITOR AND USE THEREOF” (WUHAN HUMANWELL INNOVATIVE DRUG RESEARCH AND DEVELOPMENT …, priority 2020, published 2023)
